Laboratory results from patent US20250346943A1, “DEGRADER COMPOUNDS OF QSOX1 mRNA” (UNIVERSITY OF FLORIDA RESEARCH FOUNDATION, INCORPORATED, priority 2022, published 2025).

What was measured:
[1] = tested on: MDA-MB-231 cells; assay: Proliferation assay; assay type: cell-based, human; conditions: 48 h treatment
Procedure: Proliferation Assay. MDA-MB-231 cells were seeded in 96-well plates (Corning) at ˜40% confluency and treated with compound or transfected with ASO as described in Cell Culture. Compound was replenished every 16 h by replacing all the growth medium with freshly prepared medium containing same concentration of compounds. After 48 h total treatment period, proliferation was measured by using CellTiter 96 AQueous One Solution Cell Proliferation Assay (Cat #G3582, Promega) per manufacturer's protocol.

[2] = tested on: proteins of MDA-MB-231 cells (human proteome); assay: Proteomics analysis of proteins cross-linked in MDA-MB-231 cells; assay type: cell-based; conditions: of the 3,158 proteins detectable before pull-down
Procedure: Proteomic Sample Preparation and Analysis. MDA-MB-231 cells were seeded in 60 mm dishes and allowed to reach ˜80% confluency. The cells were then treated with […] of compound in growth medium and incubated for 16 h. Cells were washed with 1×DPBS and irradiated with UV light for 10 min. For each condition, two biological replicates were prepared, and each biological replicate was split into three technical replicates. […]
Pulled-down proteins were released from beads by resuspending in 6 M urea/1×PBS (0.5 mL) supplemented with 10 mM of TCEP at room temperature for 30 min. […] To the samples was added 1 volume of isopropanol containing 1% (v/v) trifluoroacetic acid, followed by a styrenedivinylbenzene reverse-phase sulfonate (SDB-RPS) StageTip 12 Peptides were resuspended in 0.1% (v/v) formic acid (FA) in water and analyzed using Proxeon EASY-nLC 1200 nano-UHPLC coupled to QExactive HF-X Quadrupole-Orbitrap mass spectrometer (Thermo Scientific). […]
The MS data were analyzed with MaxQuant13 (V1.6.1.0) and searched against the human proteome (Uniprot) and a common list of contaminants included in MaxQuant. […] The minimum peptide length was set to six amino acids and peptide re-quantification was enabled with the minimal number of peptides per protein set to 2. […]

[3] = tested on: mutant RNA (U-bulge mutated to U/A base pair); assay: Optical melting, mutant model RNA; assay type: binding
Procedure: Optical Melting Experiments. The thermal stability of WT and mutant model RNAs in the presence and absence of F1-Amide was measured by optical melting. The RNA ([…]) was prepared in 1× Melting Buffer (8 mM Na2HPO4, pH 7, 10 mM NaCl, and 1 mM EDTA) and heated to 95° C. followed by cooling on ice. F1-Amide was added to the final concentration of 2 mM; an equal volume of DMSO was added to the vehicle sample. The absorbance of the solution at 260 nm was measured by a Beckman Coulter DU800 spectrophotometer as a function of temperature, from 12° C. to 85° C. at a rate of 1° C./min. The background absorbance of buffer with DMSO or compound was subtracted before fitting the curve with MeltWin (v3.5)^7 to determine the melting temperature (Tm) and the Gibbs free energy (ΔG37° C.).

## CCOC(=O)C1=C(Nc2ccccc2)S/C(=C\c2ccc(OCCOCCOCCOCCNC(=O)CCC(=O)N(C)[C@H]3CC[C@@H](c4ccc(Cl)c(Cl)c4)c4ccccc43)c(O)c2)C1=O [Compound F1-RIBOTAC]
[1]
  antiproliferative activity compared to F1-Amide delivered at twice the dose: enhanced activity
  effect on proliferation of MDA-MB-231 cells: dose-dependently reduced proliferation

## C#CCCC1(CCC(=O)N(C)[C@H]2CC[C@@H](c3ccc(Cl)c(Cl)c3)c3ccccc32)N=N1 [Compound F1]
[2]
  proteins selectively pulled-down (not pulled-down by the control probe): 79 proteins
[3]
  effect on Tm or ΔG37° C. of mutant RNA: No changes
